Source: ChEMBL document CHEMBL5532651, “HDAC specificity and kinase off-targeting by purine-benzohydroxamate anti-hematological tumor agents” (Eur J Med Chem, 2024)
The source made the active and inactive calls. The calls are words filed in the database; no cut-off is given here.

Columns and labels:
[1] = Selectivity index, ratio of IC50 for human leukocytes cells to IC50 for human Jurkat cells; format: functional
[2] = biological target: T1, Protein deacetylase HDAC6 (Homo sapiens) (UniProt Q9UBN7); test: Inhibition of HDAC6 in human NAMALVA cells assessed as increase in acetyl-alpha-tubulin level at IC50 incubated for 48 hrs by Western blot analysis; format: cell-based
T1 sequence (whole entry): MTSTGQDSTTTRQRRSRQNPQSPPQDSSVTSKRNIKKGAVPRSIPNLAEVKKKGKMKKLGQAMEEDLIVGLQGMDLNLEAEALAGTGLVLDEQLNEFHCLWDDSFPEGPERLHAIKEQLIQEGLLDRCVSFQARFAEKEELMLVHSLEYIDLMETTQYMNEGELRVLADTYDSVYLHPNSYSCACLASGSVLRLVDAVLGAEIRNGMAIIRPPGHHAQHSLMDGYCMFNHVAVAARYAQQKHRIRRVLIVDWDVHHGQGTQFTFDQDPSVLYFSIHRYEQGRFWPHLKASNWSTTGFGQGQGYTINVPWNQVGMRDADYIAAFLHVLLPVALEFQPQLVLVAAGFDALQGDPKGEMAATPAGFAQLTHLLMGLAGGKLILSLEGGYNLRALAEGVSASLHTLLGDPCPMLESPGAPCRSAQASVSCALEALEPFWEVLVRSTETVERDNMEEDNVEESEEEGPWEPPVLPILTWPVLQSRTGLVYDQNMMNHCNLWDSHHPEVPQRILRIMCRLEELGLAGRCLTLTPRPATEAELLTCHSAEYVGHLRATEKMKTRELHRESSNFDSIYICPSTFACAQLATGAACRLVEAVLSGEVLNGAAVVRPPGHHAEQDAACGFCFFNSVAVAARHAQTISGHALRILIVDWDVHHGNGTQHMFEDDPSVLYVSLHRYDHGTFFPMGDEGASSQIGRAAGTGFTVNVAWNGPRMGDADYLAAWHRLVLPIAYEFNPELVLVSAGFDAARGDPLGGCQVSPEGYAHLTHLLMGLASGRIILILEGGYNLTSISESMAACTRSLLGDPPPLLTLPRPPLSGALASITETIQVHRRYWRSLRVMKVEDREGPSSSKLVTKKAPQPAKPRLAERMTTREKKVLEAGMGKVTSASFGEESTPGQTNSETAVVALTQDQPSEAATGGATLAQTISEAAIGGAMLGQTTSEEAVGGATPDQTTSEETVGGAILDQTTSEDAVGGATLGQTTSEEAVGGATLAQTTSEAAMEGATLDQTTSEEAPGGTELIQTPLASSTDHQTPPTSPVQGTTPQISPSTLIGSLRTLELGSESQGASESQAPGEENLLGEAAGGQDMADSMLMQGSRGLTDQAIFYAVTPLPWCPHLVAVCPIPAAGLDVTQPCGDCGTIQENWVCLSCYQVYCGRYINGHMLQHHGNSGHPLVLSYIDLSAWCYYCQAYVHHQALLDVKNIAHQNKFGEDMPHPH

Jurkat = test: Induction of apoptosis in human Jurkat cells at IC50 measured after 48 hrs by flow cytometry; format: functional, cell-based
U-937 [3] = test: Cytotoxicity against human U-937 cells assessed as cell growth inhibition incubated for 24 to 72 hrs by MTT assay; format: functional, cell-based; settings: time lower 24.0 hrs, time upper […]
NAMALVA [4] = test: Induction of apoptosis in human NAMALVA cells at IC50 measured after 48 hrs by flow cytometry; format: functional, cell-based
Histone deacetylase 1 [5] = biological target: T2, Histone deacetylase 1 (Homo sapiens, UniProt Q13547); test: Inhibition of HDAC1 in human Jurkat cells assessed as increase in acetyl-histone H3 level at IC50 incubated for 48 hrs by Western blot analysis; format: cell-based
NAMALVA [6] = test: Inhibition of cell proliferation of human NAMALVA cells assessed as reduction in Ki-67 expression at IC50 measured after 48 hrs by flow cytometry; format: functional, cell-based
[7] = biological target: T1, Protein deacetylase HDAC6 (Homo sapiens); test: Inhibition of HDAC6 in human U-937 cells assessed as increase in acetyl-histone H3 level at IC50 incubated for 48 hrs by Western blot analysis; format: cell-based
CYP2C9 = CYP2C9 (Homo sapiens, UniProt P11712); test: Inhibition of CYP2C9 in liver microsomes (unknown origin) at 10 uM incubated for 10 mins relative to control; format: ADME, Microsome
[8] = Selectivity index, ratio of IC50 for human MCF7 cells to IC50 for human NAMALVA cells; format: functional
[9] = Stability in mouse liver microsome assessed as intrinsic clearance at 1 uM measured for 60 mins by LC-MS/MS analysis; format: ADME; settings: liver microsomes, read-out: CLH
Histone deacetylase 1 [10] = biological target: T2, Histone deacetylase 1; test: Inhibition of HDAC1 in human U-937 cells assessed as increase in acetyl-alpha-tubulin level at IC50 incubated for 48 hrs by Western blot analysis; format: cell-based
MCF7 = test: cells; format: functional, cell-based; settings: Homo sapiens
U-937 [11] = test: Induction of apoptosis in human U-937 cells at IC50 measured after 48 hrs by flow cytometry; format: functional, cell-based
[12] = biological target: T1, Protein deacetylase HDAC6 (Homo sapiens); test: Inhibition of HDAC6 in human U-937 cells assessed as increase in acetyl-alpha-tubulin level at IC50 incubated for 48 hrs by Western blot analysis; format: cell-based
CYP2D6 = CYP2D6 (Homo sapiens, UniProt P10635); test: Inhibition of CYP2D6 in liver microsomes (unknown origin) at 10 uM incubated for 10 mins relative to control; format: ADME, Microsome
[13] = Stability in human liver microsome assessed as half life at 1 uM measured for 60 mins by LC-MS/MS analysis; format: ADME; settings: liver microsomes
Histone deacetylase 1 [14] = biological target: T2, Histone deacetylase 1; test: Inhibition of HDAC1 in human NAMALVA cells assessed as increase in acetyl-alpha-tubulin level at IC50 incubated for 48 hrs by Western blot analysis; format: cell-based
[15] = Selectivity index, ratio of IC50 for human leukocytes cells to IC50 for human NAMALVA cells; format: functional
[16] = biological target: T1, Protein deacetylase HDAC6 (Homo sapiens); test: Inhibition of HDAC6 in human Jurkat cells assessed as increase in acetyl-histone H3 level at IC50 incubated for 48 hrs by Western blot analysis; format: cell-based
Histone deacetylase 1 [17] = biological target: T2, Histone deacetylase 1; test: Inhibition of full-length recombinant human HDAC1 expressed in baculovirus infected Sf9 cells using RHKK(Ac)AMC as substrate preincubated for 5 to 10 mins followed by substrate addition measured after 2 hrs by fluorescence based assay
U-937 [18] = test: Inhibition of cell proliferation of human U-937 cells assessed as reduction in Ki-67 expression at IC50 measured after 48 hrs by flow cytometry; format: functional, cell-based
[19] = biological target: Tyrosine-protein kinase JAK3 (Homo sapiens, UniProt P52333); test: Inhibition of recombinant human JAK3 (781 to 1124 residues) in presence of ATP by ELISA
NAMALVA [20] = test: Cytotoxicity against human NAMALVA cells assessed as cell growth inhibition at 0.1 to 10.5 uM by MTT assay; format: functional, cell-based; settings: dose 0.1-10.5 µM, time lower 24.0 hrs, time upper […], TDE = time-dependent effect
[21] = biological target: Tyrosine-protein kinase JAK2 (Homo sapiens, UniProt O60674); test: Inhibition of JAK2 (unknown origin) at 100 uM preincubated for 20 mins followed by 33P-ATP addition measured after 2 hrs by HotSpot kinase assay relative to control; settings: time 140.0 min
Sequence of Tyrosine-protein kinase JAK2 (O60674 whole entry): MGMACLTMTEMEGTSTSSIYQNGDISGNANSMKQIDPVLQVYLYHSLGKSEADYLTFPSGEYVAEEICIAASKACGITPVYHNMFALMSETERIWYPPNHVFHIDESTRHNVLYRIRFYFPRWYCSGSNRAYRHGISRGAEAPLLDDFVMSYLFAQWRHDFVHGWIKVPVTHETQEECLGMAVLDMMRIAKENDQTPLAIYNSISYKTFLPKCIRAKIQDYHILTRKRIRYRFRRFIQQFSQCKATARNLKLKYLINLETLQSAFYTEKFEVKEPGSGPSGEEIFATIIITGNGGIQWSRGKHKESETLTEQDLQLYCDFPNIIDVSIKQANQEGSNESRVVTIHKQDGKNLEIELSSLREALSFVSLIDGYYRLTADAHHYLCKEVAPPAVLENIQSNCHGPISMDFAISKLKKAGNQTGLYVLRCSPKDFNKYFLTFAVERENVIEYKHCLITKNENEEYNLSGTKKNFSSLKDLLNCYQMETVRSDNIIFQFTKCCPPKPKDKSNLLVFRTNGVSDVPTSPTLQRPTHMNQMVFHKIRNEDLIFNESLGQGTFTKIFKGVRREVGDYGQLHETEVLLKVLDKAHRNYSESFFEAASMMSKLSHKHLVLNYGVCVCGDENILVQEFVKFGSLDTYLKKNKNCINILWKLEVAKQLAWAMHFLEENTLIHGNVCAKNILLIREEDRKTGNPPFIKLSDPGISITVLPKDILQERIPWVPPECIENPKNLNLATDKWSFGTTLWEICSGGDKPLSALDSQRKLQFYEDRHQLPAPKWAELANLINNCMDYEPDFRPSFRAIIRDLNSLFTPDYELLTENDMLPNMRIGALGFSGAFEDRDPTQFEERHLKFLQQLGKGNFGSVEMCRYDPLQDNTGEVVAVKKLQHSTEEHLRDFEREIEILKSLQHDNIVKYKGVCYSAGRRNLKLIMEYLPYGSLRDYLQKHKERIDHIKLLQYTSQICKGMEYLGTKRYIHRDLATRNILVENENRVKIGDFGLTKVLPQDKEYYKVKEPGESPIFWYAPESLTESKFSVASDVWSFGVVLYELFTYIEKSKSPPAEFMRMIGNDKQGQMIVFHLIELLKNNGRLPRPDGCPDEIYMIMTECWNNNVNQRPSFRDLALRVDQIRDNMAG

T2 sequence (Q13547 whole entry): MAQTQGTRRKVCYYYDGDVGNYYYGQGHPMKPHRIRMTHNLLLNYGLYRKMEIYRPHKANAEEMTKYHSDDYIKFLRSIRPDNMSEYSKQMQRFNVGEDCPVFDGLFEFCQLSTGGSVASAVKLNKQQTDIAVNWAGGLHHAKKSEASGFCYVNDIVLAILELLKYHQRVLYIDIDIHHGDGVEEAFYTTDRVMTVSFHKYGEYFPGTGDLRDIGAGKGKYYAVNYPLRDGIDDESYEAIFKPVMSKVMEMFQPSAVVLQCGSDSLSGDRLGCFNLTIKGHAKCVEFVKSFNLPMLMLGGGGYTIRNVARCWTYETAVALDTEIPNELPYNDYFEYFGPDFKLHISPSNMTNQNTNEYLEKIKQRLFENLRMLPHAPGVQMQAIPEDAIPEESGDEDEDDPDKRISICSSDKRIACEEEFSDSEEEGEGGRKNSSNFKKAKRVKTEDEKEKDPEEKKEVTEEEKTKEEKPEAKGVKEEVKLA
Sequence of CYP2D6 (P10635 whole entry): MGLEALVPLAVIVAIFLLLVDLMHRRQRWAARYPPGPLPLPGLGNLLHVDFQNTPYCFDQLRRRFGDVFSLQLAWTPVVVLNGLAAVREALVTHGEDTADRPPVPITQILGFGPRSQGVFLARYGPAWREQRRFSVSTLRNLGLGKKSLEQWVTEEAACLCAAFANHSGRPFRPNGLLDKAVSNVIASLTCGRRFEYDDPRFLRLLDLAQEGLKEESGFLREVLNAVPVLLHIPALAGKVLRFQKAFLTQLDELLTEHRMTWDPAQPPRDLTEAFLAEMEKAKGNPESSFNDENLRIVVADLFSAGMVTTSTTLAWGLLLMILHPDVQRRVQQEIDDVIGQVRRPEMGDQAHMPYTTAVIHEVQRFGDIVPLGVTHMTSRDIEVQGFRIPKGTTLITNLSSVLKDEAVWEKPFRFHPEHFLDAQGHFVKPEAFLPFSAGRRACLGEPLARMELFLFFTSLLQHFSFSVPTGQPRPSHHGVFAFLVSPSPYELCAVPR
Sequence of CYP2C9 (P11712 whole entry): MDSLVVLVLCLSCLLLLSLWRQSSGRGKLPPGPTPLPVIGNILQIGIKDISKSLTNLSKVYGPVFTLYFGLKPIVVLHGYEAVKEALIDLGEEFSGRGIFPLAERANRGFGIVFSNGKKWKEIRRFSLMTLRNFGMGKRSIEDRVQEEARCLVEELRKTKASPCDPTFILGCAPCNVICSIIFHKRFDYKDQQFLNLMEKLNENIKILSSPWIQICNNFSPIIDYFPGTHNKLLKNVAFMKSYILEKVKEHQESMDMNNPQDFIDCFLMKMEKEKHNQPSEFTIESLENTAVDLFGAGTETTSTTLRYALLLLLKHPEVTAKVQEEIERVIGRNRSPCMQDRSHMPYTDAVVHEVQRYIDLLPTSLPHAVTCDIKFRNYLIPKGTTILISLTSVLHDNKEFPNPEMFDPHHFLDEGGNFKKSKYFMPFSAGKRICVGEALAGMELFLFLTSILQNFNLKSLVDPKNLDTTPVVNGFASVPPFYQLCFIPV
Sequence of Tyrosine-protein kinase JAK3 (P52333 whole entry, the tested form may be a part): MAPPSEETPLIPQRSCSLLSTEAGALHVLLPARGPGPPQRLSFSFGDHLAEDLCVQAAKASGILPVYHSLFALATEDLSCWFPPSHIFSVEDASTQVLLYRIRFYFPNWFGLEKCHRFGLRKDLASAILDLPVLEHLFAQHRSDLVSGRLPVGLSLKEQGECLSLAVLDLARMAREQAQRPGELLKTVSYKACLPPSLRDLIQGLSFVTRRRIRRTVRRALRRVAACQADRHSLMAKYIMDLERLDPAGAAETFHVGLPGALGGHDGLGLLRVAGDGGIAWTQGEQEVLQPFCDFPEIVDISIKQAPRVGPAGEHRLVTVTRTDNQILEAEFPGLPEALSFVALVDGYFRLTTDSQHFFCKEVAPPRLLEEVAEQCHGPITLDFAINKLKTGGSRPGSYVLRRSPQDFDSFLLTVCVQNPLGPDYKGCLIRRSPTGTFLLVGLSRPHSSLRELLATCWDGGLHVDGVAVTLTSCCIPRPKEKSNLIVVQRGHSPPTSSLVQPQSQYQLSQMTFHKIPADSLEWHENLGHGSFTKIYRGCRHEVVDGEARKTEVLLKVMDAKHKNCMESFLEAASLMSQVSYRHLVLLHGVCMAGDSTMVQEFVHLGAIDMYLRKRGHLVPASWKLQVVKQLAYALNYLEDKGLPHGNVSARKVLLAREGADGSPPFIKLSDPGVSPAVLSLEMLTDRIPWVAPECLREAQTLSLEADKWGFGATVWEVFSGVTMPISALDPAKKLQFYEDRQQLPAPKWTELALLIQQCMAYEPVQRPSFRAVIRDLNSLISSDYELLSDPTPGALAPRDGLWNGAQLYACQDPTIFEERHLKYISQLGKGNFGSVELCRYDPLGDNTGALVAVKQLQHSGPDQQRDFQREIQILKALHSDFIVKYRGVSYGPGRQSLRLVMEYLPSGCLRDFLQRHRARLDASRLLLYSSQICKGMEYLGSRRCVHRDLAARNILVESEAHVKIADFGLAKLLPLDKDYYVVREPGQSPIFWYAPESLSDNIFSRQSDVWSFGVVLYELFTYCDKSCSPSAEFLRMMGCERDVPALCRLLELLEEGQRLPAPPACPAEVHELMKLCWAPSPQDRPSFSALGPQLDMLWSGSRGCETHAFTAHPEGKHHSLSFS

inhibition [2] | inhibition (Histone deacetylase 1 [5]) | inhibition [7] | inhibition at 10 min, 10 µM (CYP2C9) [%] | microsomal CLint at 1 µM [9] [µL/min/mg] | inhibition (Histone deacetylase 1 [10]) | IC50 (MCF7) [nM] | inhibition [12] | inhibition at 10 min, 10 µM (CYP2D6) [%] | half-life at 1 µM [13] [h] | inhibition (Histone deacetylase 1 [14]) | inhibition [16] | IC50 (Histone deacetylase 1 [17]) [nM] | Structure (SMILES) | Ratio IC50 [1] | inhibition (U-937 [3]) | Activity (NAMALVA [4]) | inhibition (NAMALVA [6]) | Ratio IC50 [8] | Activity (U-937 [11]) | Ratio IC50 [15] | also measured
Active | Active | Active | 34 | 14 | Active | 19500 | Active | 10 | > 2 | Active | Active | 118 | COc1ccc(Nc2ncnc3c2ncn3Cc2ccc(C(=O)NO)cc2)cc1 | >=100 | Dose-Dependent Effect | Active | Active | 83 | Active | >=100 | Activity (Jurkat): Active; inhibition (U-937 [18]): Active
Active | Active | Active | 52 | 20 | Active | 9300 | Active | 10 | > 2 | Active | Active | 189 | O=C(NO)c1ccc(Cn2cnc3c(Nc4ccc(F)c(Cl)c4)ncnc32)cc1 | >=100 | Dose-Dependent Effect | Active | Active | 83 | Active | >=100 | IC50 [19]: 2590 nM; inhibition (NAMALVA [20]): Tde; inhibition [21]: 99.5%; inhibition (U-937 [18]): Active
